From ChEMBL document CHEMBL1201862, “PubChem BioAssay data set” (2004)
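Tested at 5 concentrations; 48 h exposure; 96-well plates; endpoints linearly interpolated, else capped at highest concentration. GI50: concentration for 50% inhibition of growth.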 Active and inactive are the calls of the source. No stated cut-off is given here; in the data, active = GI50 up to about 1.1 µM and inactive = higher.

Tests used:
Assay in all cases: NCI-60 cell line screen, 48 h
ACHN = system: ACHN
CAKI-1 = system: CAKI-1
COLO 205 = system: COLO 205
HOP-92 = system: HOP-92
HT-29 = system: HT-29
LOX IMVI = system: LOX IMVI
RXF 393 = system: RXF 393
SF-268 = system: SF-268
SK-MEL-28 = system: SK-MEL-28
SK-OV-3 = system: SK-OV-3
SN12C = system: SN12C
TK-10 = system: TK-10
U-251 = system: U-251
UACC-257 = system: UACC-257
UACC-62 = system: UACC-62
HCC 2998 = system: HCC 2998
MOLT-4 = system: MOLT-4
NCI-H23 = system: NCI-H23

Measured: GI50

Nc1nc(O)c2c(ncn2CC(O)CO)n1 (configuration not stated)
inactive: ACHN > 100 µM | CAKI-1 > 100 µM | COLO 205 > 100 µM | HOP-92 > 100 µM | HT-29 > 100 µM | LOX IMVI > 100 µM | RXF 393 > 100 µM | SF-268 > 100 µM | SK-MEL-28 > 100 µM | SK-OV-3 > 100 µM | SN12C > 100 µM | TK-10 > 100 µM | U-251 > 100 µM | UACC-257 > 100 µM | UACC-62 > 100 µM

CCOC(=O)C(C)(C)Oc1ccc2c(-c3ccc(Cl)cc3)c(-c3ccc(Cl)cc3)c(=O)oc2c1
inactive: ACHN > 100 µM | COLO 205 > 100 µM | HCC 2998 > 100 µM | HT-29 > 100 µM | LOX IMVI > 100 µM | MOLT-4 > 100 µM | NCI-H23 > 100 µM | RXF 393 93.8 µM | SF-268 > 100 µM | SK-MEL-28 > 100 µM | SN12C > 100 µM | TK-10 > 100 µM | U-251 > 100 µM | UACC-257 > 100 µM | UACC-62 > 100 µM

CC1(OCc2ccccc2)C(=O)N2C1N(C(=O)OCc1ccccc1)CC2(C)C (configuration not stated)
inactive: ACHN 61.1 µM | COLO 205 94.6 µM | HCC 2998 > 100 µM | HT-29 67.8 µM | LOX IMVI 46.6 µM | MOLT-4 28.2 µM | NCI-H23 35.1 µM | RXF 393 67.5 µM | SF-268 > 100 µM | SK-MEL-28 > 100 µM | SN12C > 100 µM | TK-10 > 100 µM | U-251 49.3 µM | UACC-257 36.6 µM | UACC-62 38.5 µM

CCN(CC)C(=O)N1CCN(C=S)CC1
inactive: ACHN > 100 µM | COLO 205 > 100 µM | HCC 2998 > 100 µM | HT-29 > 100 µM | LOX IMVI > 100 µM | MOLT-4 > 100 µM | NCI-H23 > 100 µM | RXF 393 > 100 µM | SF-268 > 100 µM | SK-MEL-28 > 100 µM | SK-OV-3 > 100 µM | SN12C > 100 µM | TK-10 > 100 µM | U-251 > 100 µM | UACC-257 > 100 µM | UACC-62 > 100 µM

Cn1nc2ccc3nccc(NCCNCCO)c3c2n1
inactive: ACHN 34.3 µM | CAKI-1 63 µM | COLO 205 17.5 µM | HCC 2998 40.6 µM | HOP-92 36.3 µM | HT-29 20.5 µM | LOX IMVI 20.4 µM | MOLT-4 5.56 µM | NCI-H23 39.4 µM | RXF 393 23.7 µM | SF-268 27.4 µM | SK-MEL-28 39.4 µM | SK-OV-3 34.1 µM | SN12C 32.8 µM | TK-10 45.8 µM | U-251 37 µM | UACC-257 27.3 µM | UACC-62 33.3 µM

Cn1c(=O)ccc2cc(C(=O)c3ccccc3)ccc21
inactive: ACHN 36.8 µM | CAKI-1 39.4 µM | COLO 205 > 100 µM | HCC 2998 > 100 µM | HOP-92 34.8 µM | HT-29 46 µM | LOX IMVI 57.3 µM | MOLT-4 69.7 µM | NCI-H23 55 µM | SF-268 76.6 µM | SK-MEL-28 > 100 µM | SK-OV-3 > 100 µM | SN12C 46.6 µM | TK-10 35.2 µM | U-251 84.9 µM | UACC-62 14.6 µM

N#Cc1cc([N+](=O)[O-])ccc1NC(=O)C(=O)Nn1c(S)nc2ccccc2c1=O
inactive: CAKI-1 > 100 µM | COLO 205 > 100 µM | HCC 2998 > 100 µM | HOP-92 > 100 µM | HT-29 > 100 µM | LOX IMVI > 100 µM | NCI-H23 > 100 µM | RXF 393 > 100 µM | SF-268 > 100 µM | SK-MEL-28 > 100 µM | SK-OV-3 > 100 µM | SN12C > 100 µM | TK-10 > 100 µM | U-251 > 100 µM | UACC-257 > 100 µM

CCOC(=O)C(C)(C)Oc1ccc2c(-c3ccccc3)cc(=O)oc2c1
inactive: ACHN 40.2 µM | COLO 205 21.6 µM | HCC 2998 98.4 µM | HT-29 > 10 µM | LOX IMVI 20.2 µM | MOLT-4 20.2 µM | NCI-H23 29 µM | SF-268 45.8 µM | SK-MEL-28 35.6 µM | SN12C 37 µM | TK-10 56.8 µM | U-251 36.3 µM | UACC-257 28.7 µM | UACC-62 18.3 µM

O=[N+]([O-])c1ccc(-c2ccc(C3=Nn4c(CNc5ccccc5Cl)nnc4SC3)o2)cc1
inactive: ACHN 32.6 µM | CAKI-1 > 100 µM | COLO 205 > 100 µM | HCC 2998 > 100 µM | HOP-92 > 100 µM | HT-29 > 100 µM | LOX IMVI 42.7 µM | MOLT-4 > 100 µM | NCI-H23 87.9 µM | SF-268 > 100 µM | SK-MEL-28 > 100 µM | SK-OV-3 > 100 µM | SN12C > 100 µM | TK-10 > 100 µM | U-251 > 100 µM | UACC-257 > 100 µM | UACC-62 > 100 µM

NNC(=O)C(=O)N/N=C1/CCCC1C(=O)CCC(=O)Nc1ccc(Cl)cc1 (configuration not stated)
inactive: ACHN 15.3 µM | CAKI-1 20.5 µM | COLO 205 > 100 µM | HCC 2998 > 100 µM | HOP-92 > 100 µM | HT-29 > 100 µM | MOLT-4 > 100 µM | NCI-H23 > 100 µM | RXF 393 > 100 µM | SF-268 > 100 µM | SK-MEL-28 > 100 µM | SK-OV-3 > 100 µM | SN12C > 100 µM | TK-10 > 100 µM | U-251 > 100 µM | UACC-257 > 100 µM | UACC-62 2.49 µM

Cc1cccc(C(C)C)c1NC(=O)CCl
inactive: ACHN 73.3 µM | CAKI-1 27.9 µM | COLO 205 86.9 µM | HCC 2998 29.6 µM | HOP-92 28.6 µM | HT-29 49.1 µM | LOX IMVI 37.1 µM | MOLT-4 63.7 µM | NCI-H23 22.9 µM | RXF 393 25.2 µM | SF-268 38 µM | SK-MEL-28 > 100 µM | SK-OV-3 67.8 µM | SN12C 56.2 µM | TK-10 > 10 µM | U-251 40.7 µM | UACC-257 > 100 µM | UACC-62 24.4 µM

COc1ccc(NC(=O)C2C(=O)N(c3ccc(OC)cc3)C(=O)/C2=N/O)cc1 (configuration not stated)
inactive: ACHN 21.8 µM | CAKI-1 32.7 µM | COLO 205 > 100 µM | HCC 2998 21 µM | HOP-92 16.1 µM | HT-29 38.6 µM | LOX IMVI 57.8 µM | MOLT-4 > 100 µM | NCI-H23 43.4 µM | RXF 393 15.3 µM | SF-268 24.8 µM | SK-MEL-28 37.8 µM | SK-OV-3 20.2 µM | SN12C 26.4 µM | TK-10 23.9 µM | U-251 22.3 µM | UACC-257 41.6 µM | UACC-62 21.8 µM

c1ccc2c(c1)N=C(c1cccc3ccccc13)CC(c1ccc3c(c1)OCO3)S2 (configuration not stated)
inactive: ACHN > 100 µM | CAKI-1 > 100 µM | COLO 205 > 100 µM | HCC 2998 > 100 µM | HT-29 > 100 µM | LOX IMVI > 100 µM | MOLT-4 > 100 µM | NCI-H23 > 100 µM | RXF 393 > 100 µM | SF-268 > 100 µM | SK-MEL-28 > 10 µM | SK-OV-3 > 100 µM | SN12C > 100 µM | TK-10 > 100 µM | U-251 73.3 µM | UACC-257 > 100 µM | UACC-62 > 100 µM

CC(=O)/C(=N\O)C(=O)NCc1ccccc1
inactive: ACHN > 100 µM | CAKI-1 > 100 µM | COLO 205 58.9 µM | HCC 2998 > 100 µM | HOP-92 > 100 µM | HT-29 > 100 µM | LOX IMVI 20.2 µM | MOLT-4 > 100 µM | NCI-H23 > 100 µM | RXF 393 > 100 µM | SF-268 > 100 µM | SK-MEL-28 > 100 µM | SK-OV-3 > 100 µM | SN12C > 100 µM | TK-10 > 100 µM | U-251 > 100 µM | UACC-257 > 100 µM | UACC-62 > 100 µM

O=C(Cc1ccccc1)NN1C(=O)C(Cl)C1c1cccc(O)c1 (configuration not stated)
inactive: ACHN 16.4 µM | CAKI-1 17.9 µM | COLO 205 18.4 µM | HCC 2998 20.2 µM | HT-29 16.7 µM | LOX IMVI 13.5 µM | MOLT-4 7.69 µM | NCI-H23 17.5 µM | RXF 393 18 µM | SF-268 21.1 µM | SK-MEL-28 18.4 µM | SK-OV-3 28.2 µM | SN12C 18.5 µM | TK-10 18.9 µM | U-251 11.9 µM | UACC-257 18.2 µM | UACC-62 > 10 µM

O=C(CN1CCN(c2ccccc2)CC1)N1CCc2c([nH]c3ccccc23)C1c1cccnc1 (configuration not stated)
inactive: ACHN 51.8 µM | CAKI-1 25.3 µM | COLO 205 > 100 µM | HCC 2998 > 87.9 µM | HOP-92 20.2 µM | HT-29 > 53.5 µM | LOX IMVI > 73.1 µM | MOLT-4 > 100 µM | NCI-H23 30.5 µM | RXF 393 9.68 µM | SF-268 39.1 µM | SK-MEL-28 > 95.3 µM | SK-OV-3 25.8 µM | SN12C > 82.6 µM | TK-10 > 29.4 µM | U-251 14.3 µM | UACC-257 > 100 µM | UACC-62 88.7 µM

CCCCCCCCCCSS(=O)(=O)c1ccc(C)cc1
inactive: ACHN 16.9 µM | CAKI-1 15.9 µM | COLO 205 14.1 µM | HCC 2998 17.5 µM | HOP-92 12.9 µM | HT-29 9.08 µM | LOX IMVI 4.45 µM | MOLT-4 2.03 µM | NCI-H23 17.3 µM | RXF 393 15.8 µM | SF-268 6.12 µM | SK-MEL-28 3.39 µM | SK-OV-3 22.3 µM | SN12C 10.5 µM | TK-10 21 µM | U-251 4 µM | UACC-257 8.28 µM | UACC-62 6.82 µM
